These results are taken from ChEMBL document CHEMBL3871305, “Imidazopyridyl compounds as aldosterone synthase inhibitors” (Bioorg Med Chem Lett, 2017).

A short description of data set [1]: in vitro. To be noted: human, liver microsomes.
The nature of data set [2]: in vitro. To be noted: rhesus monkey, liver microsomes.
Data set [3] can be described thus: in vitro. To be noted: rat, liver microsomes. A general note: Liver microsomes are a subcellular fraction often used to study metabolism.
Data set [4] can be described thus: Half life in Wistar Han rat at 1 mg/kg, iv or 2 mg/kg, po. As to conditions: in vivo. Format: ADME, organism-based.
Data set [5] can be described thus: Plasma clearance in Wistar Han rat at 1 mg/kg, iv or 2 mg/kg, po. Format: ADME, organism-based.
Data set [6] is described as follows: MRT in Wistar Han rat at 1 mg/kg, iv or 2 mg/kg, po. Format: ADME, organism-based. To be noted: in vivo.
Data set [7] is described as follows: Volume of distribution at steady state in Wistar Han rat at 1 mg/kg, iv or 2 mg/kg, po. In kind it is ADME, organism-based. As to conditions: in vivo, read-out: Vdss.
Data set [8] is described as follows: Oral bioavailability in Wistar Han rat at 2 mg/kg. To be noted: in vivo. Format: ADME, organism-based.
A short description of data set [9]: Cmax in Wistar Han rat at 1 mg/kg, iv or 2 mg/kg, po. As to conditions: in vivo. Format: ADME, organism-based.
Data set [10] is described as follows: Dose normalized AUC in Wistar Han rat at 2 mg/kg, po. In kind it is ADME, organism-based. As to conditions: in vivo.

Consider `C[C@@](O)(c1cncc(-c2nc3ccc(F)cn3c2C2CC2)c1)C(F)(F)F`, for which the fraction remaining at 0.5 h, 1 µM in “in vitro [1]” came out at 96%; in “in vitro [2]”, 31%; in “in vitro [3]”, 33%.

With `CCc1c(F)cncc1-c1nc2ccc(F)cn2c1C1CC1`, the amount remaining at 0.5 h, 1 µM in “in vitro [1]” came to 37%; in “in vitro [2]”, 0%; in “in vitro [3]”, 2%.

In the case of `Fc1cncc(-c2nc3ccc(F)cn3c2C2CC2)c1`, the fraction remaining at 0.5 h, 1 µM was determined as 93% in the data set “in vitro [1]”, 29% in the data set “in vitro [2]” and 70% in “in vitro [3]”.

Consider `Fc1cncc(-c2nc3cc(F)c(Cl)cn3c2C2CC2)c1`, for which the amount remaining at 0.5 h, 1 µM was determined as 93% in the data set “in vitro [1]”, 87% in the data set “in vitro [2]” and 80% in “in vitro [3]”.

In [4], `C[C@](O)(c1cncc(-c2nc3ccc(F)cn3c2C2CC2)c1)C(F)(F)F` showed a half-life of 36.6 min. Further, the amount remaining at 0.5 h, 1 µM in “in vitro [1]” stood at 88%; in “in vitro [2]”, 31%; in the data set “in vitro [3]”, 38%. For the same compound, the clearance in data set [5] amounted to 23 mL/min/kg. The same compound came in with an MRT in data set [6] of 34.8 min. The Vd in [7] was 0.82 L/kg. In data set [8], this compound yielded a bioavailability of 47%. The concentration in [9] peaked (Cmax) at 700 nM. In addition, in data set [10], the AUC/dose amounted to 0.92 µM·kg·h/mg.

As usually defined, the amount remaining is the share of the starting amount still present when the sample was taken. The half-life is the time needed for the level to fall by half in the phase considered. A word on the MRT: it is the average time that molecules of a dose stay in the body. In general, bioavailability refers to dose-corrected exposure relative to a reference, in per cent. For orientation: Cmax means the maximum level reached in the sampled fluid or tissue.
